pIC50: −log10 of the molar value.

This experiment addresses T1, c-MET (Homo sapiens, UniProt P08581).
T1 construct: Purified GST fusion protein containing the Met kinase domain, Sugen, Inc
Briefly: Met Transphosphorylation Assay (ELISA, poly(Glu,Tyr) 4:1 substrate). The format is biochemical. The note with it: purified GST fusion protein containing the Met kinase domain. On the procedure: Met Transphosphorylation Assay
This assay is used to measure phosphotyrosine levels on a poly(glutamic acid:tyrosine (4:1)) substrate as a means for identifying agonists/antagonists of met transphosphorylation of the substrate.
6. Purified GST fusion protein containing the Met kinase domain, Sugen, Inc.
8. 10% aqueous (MilliQue H2O) DMSO.
10. 2× Kinase Dilution Buffer: for 100 ml, mix 10 mL 1M HEPES at pH 7.5 with 0.4 mL 5% BSA/PBS, 0.2 mL 0.1 M sodium orthovanadate and 1 mL 5M sodium chloride in 88.4 mL dH2O.
11. 4× ATP Reaction Mixture: for 10 mL, mix 0.4 mL 1 M manganese chloride and 0.02 mL 0.1 M ATP in 9.56 mL dH2O.
12. 4× Negative Controls Mixture: for 10 mL, mix 0.4 mL 1 M manganese chloride in 9.6 mL dH2O.
15. Antibody Dilution Buffer: for 100 mL, mix 10 mL 5% BSA/PBS, 0.5 mL 5% Carnation Instant Milk® in PBS and 0.1 mL 0.1 M sodium orthovanadate in 88.4 mL TBST.
16. Rabbit polyclonal antophosphotyrosine antibody, Sugen, Inc.
17. Goat anti-rabbit horseradish peroxidase conjugated antibody, Biosource, Inc.
18. ABTS Solution: for 1 L, mix 19.21 g citric acid, 35.49 g Na2HPO4 and 500 mg ABTS with sufficient dH2O to make 1 L.
19. ABTS/H2O2: mix 15 mL ABST solution with 2pL H2O2 five minutes before use.
1. Coat ELISA plates with 2 μg Poly(Glu—Tyr) in 100 μL PBS, store overnight at 4° C.
2. Block plate with 150 μL of 5% BSA/PBS for 60 min.
3. Wash plate twice with PBS, once with 50 mM Hepes buffer pH 7.4.
4. Add 50 μl of the diluted kinase to all wells. (Purified kinase is diluted with Kinase Dilution Buffer. Final concentration should be 10 ng/well.)
5. Add 25 μL of the test compound (in 4% DMSO) or DMSO alone (4% in dH2O) for controls to plate.
6. Incubate the kinase/compound mixture for 15 minutes.
7. Add 25 μL of 40 mM MnCl2 to the negative control wells.
8. Add 25 μL ATP/MnCl2 mixture to the all other wells (except the negative controls). Incubate for 5 min.
9. Add 25 μL 500 mM EDTA to stop reaction.
10. Wash plate 3× with TBST.
11. Add 100 μL rabbit polyclonal anti-Ptyr diluted 1:10,000 in Antibody Dilution Buffer to each well. Incubate, with shaking, at room temperature for one hour.
12. Wash plate 3× with TBST.
13. […] Add 100 μL per well and incubate at room temperature, with shaking, for one hour.
14. Wash plate 1× with PBS.
15. Add 100 μl of ABTS/H2O2 solution to each well.
16. If necessary, stop the development reaction with the addition of 100 μl of 0.2M HCl per well.
Met Transphosphorylation Assay Results

T1 sequence (P08581 1078-1345 limits assumed): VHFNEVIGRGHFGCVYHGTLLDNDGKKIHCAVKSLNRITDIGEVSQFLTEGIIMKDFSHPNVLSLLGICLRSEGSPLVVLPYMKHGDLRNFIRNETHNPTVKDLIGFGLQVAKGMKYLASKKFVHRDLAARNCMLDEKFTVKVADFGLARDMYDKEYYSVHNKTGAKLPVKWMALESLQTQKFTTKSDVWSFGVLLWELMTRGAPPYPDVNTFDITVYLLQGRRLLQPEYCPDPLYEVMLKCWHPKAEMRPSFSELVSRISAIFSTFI

For the molecule `Oc1ccc(Cc2nnc3ncc(-c4cccs4)nn23)cc1` [Example 2, 4-(6-Thiophen-2-yl-[1,2,4]triazolo[4,3-b][1,2,4]triazin-3-ylmethyl)-phenol], the pIC50 was 8.40. Turning to `Fc1ccc(Cc2nnc3ncc(-c4ccccc4)nn23)cc1` [Example 4, 3-(4-Fluoro-benzyl)-6-phenyl-[1,2,4]triazolo[4,3-b][1,2,4]triazine], the pIC50 is 7.30.

The molecule `Fc1ccc(Cc2nnc3ncc(-c4cccs4)nn23)cc1` [Example 5, 3-(4-Fluoro-benzyl)-6-thiophen-2-yl-[1,2,4]triazolo[4,3-b][1,2,4]triazine] showed a negative logarithm of the IC50 (pIC50) of 7.89. In turn, `Fc1ccc(Cc2nnc3ncc(-c4ccc(Br)cc4)nn23)cc1` [Example 6, 6-(4-Bromo-phenyl)-3-(4-fluoro-benzyl)-[1,2,4]triazolo[4,3-b][1,2,4]triazine] gave a pIC50 of 7.35.

Regarding `Oc1ccc(Cc2nnc3nccnn23)cc1` [Example 7, 4-[1,2,4]Triazolo[4,3-b][1,2,4]triazin-3-ylmethyl-phenol], the pIC50 was 7.25. As for `Cc1nc2nnc(Cc3ccc(O)cc3)n2nc1C` [Example 8, 4-(6,7-Dimethyl-[1,2,4]triazolo[4,3-b][1,2,4]triazin-3-ylmethyl)-phenol], the figure is less than 4.70; as for `Cc1nn2c(Cc3ccc(O)cc3)nnc2nc1N` [Example 9, 4-(7-Amino-6-methyl-[1,2,4]triazolo[4,3-b][1,2,4]triazin-3-ylmethyl)-phenol], 6.08.

For the origin of these results see patent publication US7122548B2, “Triazolotriazine compounds and uses thereof” (Sugen, Inc., priority 2003, dated 2006).
